# From patent publication US8399196B2, “Nucleic acid sequencing methods, kits and reagents” (GeneForm Technologies Limited, priority 2003, dated 2013)
# Where two headings read alike, the source gives them in different places.
# Biological target: T1, Klenow exo- with template-primer (Escherichia coli, UniProt P00582, D355A/E357A)
# T1 construct: purchased New England Biolabs
# Type: binding
# Conditions: for signal +polymerase + DUpNHPP: 0.3 uM Dye-DUTP conjugate, buffer background subtracted
# Protocol: (1) Dideoxy terminated primer and template were mixed at a ratio of 2:1 (final template concentrations were varied as shown)
# (2) DGTP DCTP and DATP was added to a final concentration of 1 mM.
# (3) 0.3 uM of Intercalator-Dye-DUTP conjugate was added to the system.
# (4) In some samples non-incorporable DUTP (DUPNHPP) was added as shown.
# (5) 300 nM Klenow exo- was added
# (6) The system was heated to at 37° C.
# Where the intercalating dye is conjugated to DNPNHPP or other nonincorporable entities, then the dideoxy terminated primer is unnecessary and will allow sequential sequencing if a limited concentration of native bases are added.
# Buffer background subtracted.
# T1 sequence (P00582 324-928 D355A/E357A): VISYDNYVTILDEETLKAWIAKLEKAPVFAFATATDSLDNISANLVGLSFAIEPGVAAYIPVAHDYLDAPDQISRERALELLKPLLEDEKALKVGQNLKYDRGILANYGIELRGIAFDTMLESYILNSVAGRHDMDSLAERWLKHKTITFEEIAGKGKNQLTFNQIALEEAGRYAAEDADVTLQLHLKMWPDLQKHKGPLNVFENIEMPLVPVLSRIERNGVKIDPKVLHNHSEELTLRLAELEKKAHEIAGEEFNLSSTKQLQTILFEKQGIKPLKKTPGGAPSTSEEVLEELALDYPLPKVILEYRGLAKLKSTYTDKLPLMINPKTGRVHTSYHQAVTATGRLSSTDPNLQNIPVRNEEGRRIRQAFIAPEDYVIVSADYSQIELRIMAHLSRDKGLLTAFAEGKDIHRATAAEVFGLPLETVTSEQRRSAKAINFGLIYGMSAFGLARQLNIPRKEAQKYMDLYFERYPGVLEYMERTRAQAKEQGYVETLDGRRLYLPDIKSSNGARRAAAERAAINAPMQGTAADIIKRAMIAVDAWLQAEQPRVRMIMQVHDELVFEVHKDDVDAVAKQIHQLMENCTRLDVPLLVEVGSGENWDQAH
structure (smiles),measurement,setting,value
O=c1ccn([C@H]2CC(O)[C@@H](COP(=O)(O)NP(=O)(O)OP(=O)(O)O)O2)c(=O)[nH]1 (stereo partly shown) [DUPNHPP],"signal, T-P + Dye-DUTP + Primer1 + DUPNHPP","DUPNHPP added in competition with 0.3 uM Dye-DUTP, DUPNHPP concentration not given",320
same,signal +polymerase + DUpNHPP,Template-primer-a 0.015625 uM,55
same,signal +polymerase + DUpNHPP,Template-primer-a 0.03125 uM,114
same,signal +polymerase + DUpNHPP,Template-primer-a 0.0625 uM,234
same,signal +polymerase + DUpNHPP,Template-primer-a 0.125 uM,438
same,signal +polymerase + DUpNHPP,Template-primer-a 0.25 uM,916
same,signal +polymerase + DUpNHPP,Template-primer-a 0.5 uM,1802
